Reference: patent publication US11739070B2, “C5A receptor modulators” (IDORSIA PHARMACEUTICALS LTD, priority 2018, dated 2023)

target: T1, C5AR1 (Homo sapiens, UniProt P21730); assay: hC5a DISCO IC50 assay (PathHunter beta-arrestin, antagonist mode); assay type: cell-based; conditions: CHO-K1 C5AR1 beta-arrestin cell line; antagonist vs 1-10 nM C5a agonist; geometric mean values; read-out: C5aR IC50
T1 construct: host or cells: CHO-K1
T1 sequence (P21730 1-350): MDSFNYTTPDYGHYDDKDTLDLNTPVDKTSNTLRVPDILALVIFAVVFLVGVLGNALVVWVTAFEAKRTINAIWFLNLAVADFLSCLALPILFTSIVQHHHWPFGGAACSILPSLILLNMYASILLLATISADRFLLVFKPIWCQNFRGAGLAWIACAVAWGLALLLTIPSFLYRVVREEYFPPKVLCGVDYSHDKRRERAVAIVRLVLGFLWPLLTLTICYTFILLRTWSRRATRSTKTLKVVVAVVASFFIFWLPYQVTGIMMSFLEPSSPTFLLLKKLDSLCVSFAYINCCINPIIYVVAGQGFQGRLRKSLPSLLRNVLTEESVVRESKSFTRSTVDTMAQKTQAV
How it was run: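 Antagonist added first, then 1-10 nM C5a agonist; cells incubated 1.5 h at 37 °C. Beta-arrestin signal developed with PathHunter detection reagent, 45 min at RT. IC50 in nmol/l from serial antagonist dilutions, reported as geometric mean of several measurements.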

| IC50 [µM] | SMILES |
| --- | --- |
| 0.182 | COc1ccnc(OC)c1N1CCC(n2c(=O)n(Cc3ccccc3C(F)(F)F)c3c(OC)cccc32)CC1 [Example 248, 1-(2′,4′-Dimethoxy-3,4,5,6-tetrahydro-2H-[1,3′]bipyridinyl-4-yl)-4-methoxy-3-(2-trifluoromethyl-benzyl)-1,3-dihydro-benzoimidazol-2-one] |
| 0.273 | COc1ncnc(C)c1N1CCC(n2c(=O)n(Cc3ccccc3C(F)(F)F)c3c(OC)cccc32)CC1 [Example 249, 4-Methoxy-1-[1-(4-methoxy-6-methyl-pyrimidin-5-yl)-piperidin-4-yl]-3-(2-trifluoromethyl-benzyl)-1,3-dihydro-benzoimidazol-2-one] |
| 0.853 | COc1ncnc(OC)c1N1CCC(n2c(=O)n(Cc3ccccc3C(F)(F)F)c3c(OC)cccc32)CC1 [Example 250, 1-[1-(4,6-Dimethoxy-pyrimidin-5-yl)-piperidin-4-yl]-4-methoxy-3-(2-trifluoromethyl-benzyl)-1,3-dihydro-benzoimidazol-2-one] |
